We go through 27 compounds from ChEMBL document CHEMBL5214957.

Each structure is given as a SMILES string. A value given as a limit tells only on which side of the number the result lay.

Type in all cases: cell-based
Assay [1] concerns the target T1, Potassium channel subfamily T member 2 (Homo sapiens, UniProt Q6UVM3).
T1 sequence (Q6UVM3 whole entry): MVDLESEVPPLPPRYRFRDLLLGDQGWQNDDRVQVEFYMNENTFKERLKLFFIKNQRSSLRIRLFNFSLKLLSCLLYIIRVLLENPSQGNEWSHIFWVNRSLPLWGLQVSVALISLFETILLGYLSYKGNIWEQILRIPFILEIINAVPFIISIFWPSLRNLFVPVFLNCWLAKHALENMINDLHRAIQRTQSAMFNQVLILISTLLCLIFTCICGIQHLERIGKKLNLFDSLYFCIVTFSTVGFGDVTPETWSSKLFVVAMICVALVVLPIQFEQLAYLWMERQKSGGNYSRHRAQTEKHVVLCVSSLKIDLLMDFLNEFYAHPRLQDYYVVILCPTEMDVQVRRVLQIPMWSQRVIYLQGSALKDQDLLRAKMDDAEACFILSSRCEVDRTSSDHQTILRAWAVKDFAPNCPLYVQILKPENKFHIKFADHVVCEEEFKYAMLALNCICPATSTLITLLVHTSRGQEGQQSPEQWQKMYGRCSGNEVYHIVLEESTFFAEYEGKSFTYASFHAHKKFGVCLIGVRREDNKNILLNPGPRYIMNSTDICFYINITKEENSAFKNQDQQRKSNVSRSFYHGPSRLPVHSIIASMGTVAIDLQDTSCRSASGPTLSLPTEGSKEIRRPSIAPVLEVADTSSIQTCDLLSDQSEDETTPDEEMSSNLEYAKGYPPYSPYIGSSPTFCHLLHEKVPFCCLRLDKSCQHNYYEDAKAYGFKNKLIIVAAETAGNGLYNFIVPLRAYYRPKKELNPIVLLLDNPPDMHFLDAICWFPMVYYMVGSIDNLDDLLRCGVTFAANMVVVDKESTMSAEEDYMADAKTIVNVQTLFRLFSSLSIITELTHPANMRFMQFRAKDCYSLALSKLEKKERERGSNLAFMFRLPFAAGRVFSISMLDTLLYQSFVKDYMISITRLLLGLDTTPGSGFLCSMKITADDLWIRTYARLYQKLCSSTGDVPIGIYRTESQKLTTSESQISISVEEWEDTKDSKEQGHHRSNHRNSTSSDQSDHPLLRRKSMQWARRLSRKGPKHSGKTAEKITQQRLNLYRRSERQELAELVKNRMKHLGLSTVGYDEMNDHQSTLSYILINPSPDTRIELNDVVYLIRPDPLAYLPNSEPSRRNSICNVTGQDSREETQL
Kind of assay: Inhibition of Slick (unknown origin) expressed in HEK293 cells measured by thallium flux assay.

For assay [2], the target named is T2, Potassium channel subfamily T member 1 (Homo sapiens, UniProt Q5JUK3).
T2 sequence (Q5JUK3 whole entry): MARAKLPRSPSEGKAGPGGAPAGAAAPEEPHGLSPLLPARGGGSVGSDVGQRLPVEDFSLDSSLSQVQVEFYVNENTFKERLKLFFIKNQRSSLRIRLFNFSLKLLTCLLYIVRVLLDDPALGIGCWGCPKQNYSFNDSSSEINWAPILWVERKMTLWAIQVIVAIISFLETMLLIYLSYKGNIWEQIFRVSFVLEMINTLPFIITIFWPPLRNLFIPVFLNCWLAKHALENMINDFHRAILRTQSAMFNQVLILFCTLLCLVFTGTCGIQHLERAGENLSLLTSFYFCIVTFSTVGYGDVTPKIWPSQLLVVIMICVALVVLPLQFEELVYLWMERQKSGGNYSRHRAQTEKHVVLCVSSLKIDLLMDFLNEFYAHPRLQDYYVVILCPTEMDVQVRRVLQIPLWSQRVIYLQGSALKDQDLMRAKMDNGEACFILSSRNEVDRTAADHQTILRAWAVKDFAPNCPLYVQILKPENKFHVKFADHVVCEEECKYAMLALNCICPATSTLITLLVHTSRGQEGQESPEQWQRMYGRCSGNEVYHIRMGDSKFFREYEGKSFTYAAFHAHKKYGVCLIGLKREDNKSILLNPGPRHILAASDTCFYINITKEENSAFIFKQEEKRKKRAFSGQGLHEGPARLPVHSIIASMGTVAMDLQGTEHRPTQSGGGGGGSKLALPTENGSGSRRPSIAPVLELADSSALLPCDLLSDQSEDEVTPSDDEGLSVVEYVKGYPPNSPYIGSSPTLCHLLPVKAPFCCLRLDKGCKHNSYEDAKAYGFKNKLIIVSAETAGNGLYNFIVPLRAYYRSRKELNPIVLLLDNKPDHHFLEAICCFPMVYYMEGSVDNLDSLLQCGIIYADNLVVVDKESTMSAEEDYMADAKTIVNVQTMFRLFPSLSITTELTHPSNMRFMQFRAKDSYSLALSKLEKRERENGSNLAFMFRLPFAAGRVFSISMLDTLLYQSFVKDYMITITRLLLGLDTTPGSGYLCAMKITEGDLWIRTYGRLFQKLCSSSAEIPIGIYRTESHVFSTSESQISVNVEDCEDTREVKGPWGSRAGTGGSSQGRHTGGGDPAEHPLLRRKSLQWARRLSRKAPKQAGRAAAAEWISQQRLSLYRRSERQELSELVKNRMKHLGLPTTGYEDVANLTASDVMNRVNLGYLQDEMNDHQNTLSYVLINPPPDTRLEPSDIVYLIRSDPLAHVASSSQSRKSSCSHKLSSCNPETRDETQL
Kind of assay: Activation of wild-type human Slack expressed in HEK293 cells measured by thallium flux assay.

The target in assay [3] is T2, Potassium channel subfamily T member 1. Kind of assay: Inhibition of wild-type human Slack expressed in HEK293 cells measured by thallium flux assay.
Assay [4] has the same target. The assay is described as follows: Inhibition of wild-type Slack (unknown origin) expressed in HEK293 cells measured by whole-cell electrophysiology assay.
Assay [5] is described as follows: Inhibition of Slack A934T mutant (unknown origin) expressed in HEK293 cells measured by whole-cell electrophysiology assay. The conditions noted are these: Homo sapiens.
Assay [6] can be described thus: Inhibition of human Slack A934T mutant expressed in HEK293 cells measured by thallium flux assay.
Assay [7] concerns the target T3, Calcium-activated potassium channel subunit alpha-1 (Homo sapiens, UniProt Q12791). The assay is described as follows: Inhibition of Maxi-K (unknown origin) expressed in HEK293 cells measured by thallium flux assay.
In assay [8] the target is T4, Potassium channel subfamily T member 2 (Homo sapiens) (UniProt Q6UVM3).
T4 sequence (whole entry): T1 sequence (Q6UVM3 whole entry)
Kind of assay: Inhibition of Slick (unknown origin) expressed in HEK293 cells at 30 uM measured by thallium flux assay relative to control.

Assay [9] addresses T3, Calcium-activated potassium channel subunit alpha-1. Kind of assay: Inhibition of Maxi-K (unknown origin) expressed in HEK293 cells at 30 uM measured by thallium flux assay relative to control.

T3 sequence (Q12791 whole entry): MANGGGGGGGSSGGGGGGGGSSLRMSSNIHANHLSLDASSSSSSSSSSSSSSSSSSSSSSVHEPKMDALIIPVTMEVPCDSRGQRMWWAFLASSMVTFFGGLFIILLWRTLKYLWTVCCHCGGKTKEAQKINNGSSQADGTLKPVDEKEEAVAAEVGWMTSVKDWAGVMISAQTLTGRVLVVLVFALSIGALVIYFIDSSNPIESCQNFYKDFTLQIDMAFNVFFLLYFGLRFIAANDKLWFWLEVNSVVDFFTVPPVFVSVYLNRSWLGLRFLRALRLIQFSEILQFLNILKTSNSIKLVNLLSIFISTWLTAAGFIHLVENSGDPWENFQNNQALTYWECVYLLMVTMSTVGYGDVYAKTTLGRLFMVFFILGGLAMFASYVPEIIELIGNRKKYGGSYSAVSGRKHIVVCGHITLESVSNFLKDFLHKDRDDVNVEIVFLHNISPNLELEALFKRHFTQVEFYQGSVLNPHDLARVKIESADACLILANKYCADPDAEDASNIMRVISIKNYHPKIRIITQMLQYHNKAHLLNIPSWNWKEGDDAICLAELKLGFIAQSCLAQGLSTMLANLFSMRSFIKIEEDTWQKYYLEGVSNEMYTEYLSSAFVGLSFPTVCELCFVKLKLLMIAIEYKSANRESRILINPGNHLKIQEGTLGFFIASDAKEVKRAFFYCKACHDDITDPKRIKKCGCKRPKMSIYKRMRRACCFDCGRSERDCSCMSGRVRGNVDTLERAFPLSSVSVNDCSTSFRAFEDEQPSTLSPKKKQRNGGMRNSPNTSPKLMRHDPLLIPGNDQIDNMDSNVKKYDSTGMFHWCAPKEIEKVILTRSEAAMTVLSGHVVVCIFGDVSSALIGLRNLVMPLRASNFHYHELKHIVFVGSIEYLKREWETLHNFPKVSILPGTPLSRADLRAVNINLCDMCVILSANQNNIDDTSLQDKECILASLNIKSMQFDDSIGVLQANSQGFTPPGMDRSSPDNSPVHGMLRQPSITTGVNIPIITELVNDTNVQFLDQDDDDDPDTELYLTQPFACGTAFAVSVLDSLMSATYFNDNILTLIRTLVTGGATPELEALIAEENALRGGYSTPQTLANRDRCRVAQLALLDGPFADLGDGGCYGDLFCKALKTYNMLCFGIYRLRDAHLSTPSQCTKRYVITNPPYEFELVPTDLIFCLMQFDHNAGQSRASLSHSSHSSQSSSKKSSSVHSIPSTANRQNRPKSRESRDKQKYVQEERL

`COc1ccc(Cl)cc1NC(=O)[C@H](C)N1CCN(S(=O)(=O)N2CCC(C(F)(F)F)CC2)CC1` had an IC50 in assay [1] of over 10 µM.
`Cc1ccc(NC(=O)CN2CCN(S(=O)(=O)N3CCC(C)CC3)CC2)cc1` registered an EC50 in assay [2] of 4.1 µM.
`COc1ccc(NC(=O)CN2CCN(S(=O)(=O)N3CCC(C)CC3)CC2)cc1`: the EC50 in assay [2] was over 10 µM.
As to `COc1ccc(Cl)cc1NC(=O)N1CCCN(S(=O)(=O)N2CCC(C)CC2)CC1`, in assay [3], the IC50 is 6.2 µM.
Consider `COc1ccc(Cl)cc1NC(=O)CN1CCN(S(=O)(=O)N2CCC(C)CC2)CC1`, for which the IC50 in assay [4] is 1.7 µM; in assay [5], 1.6 µM; in [6], 1.4 µM; in [3] it was 2.4 µM; in [1] it was over 10 µM.
Consider `COc1ccc(Cl)cc1NC(=O)CN1CCN(S(=O)(=O)N2CCC(C)CC2)C[C@@H]1C`, for which the IC50 worked out at 2.1 µM in assay [6] and 3.5 µM in [3].
For `COc1ccc(Cl)cc1NC(=O)CN(C)CCN(C)S(=O)(=O)N1CCC(C)CC1`, in assay [3], the IC50 is over 10 µM.
Same read-out and setting: for `COc1ccc(Br)cc1NC(=O)CN1CCN(S(=O)(=O)N2CCC(C)CC2)CC1` the value was 1.4 µM.
In the case of `CCCOc1ccc(Cl)cc1NC(=O)CN1CCN(S(=O)(=O)N2CCC(C)CC2)CC1`, the IC50 in assay [6] turned out to be 3.1 µM; in assay [3], 4.3 µM.
For `CC1CCN(S(=O)(=O)N2CCN(CC(=O)Nc3cc(Cl)ccc3F)CC2)CC1`, the EC50 in assay [2] was found to be 3.8 µM.
As to `COc1ccc(Cl)cc1NC(=O)CN1CCN(S(=O)(=O)N2CCC(C)CC2)[C@@H](C)C1`, the IC50 in [3] was over 10 µM.
In the case of `CC1CCN(S(=O)(=O)N2CCN(CC(=O)Nc3cccc(F)c3)CC2)CC1`, the EC50 in [2] was found to be 4.6 µM.
On the same count and under the same terms, to `COc1ccc(Cl)cc1NC(=O)CN1CCN(S(=O)(=O)N2CCN(C(=O)N3CCCCCC3)CC2)CC1` belongs over 10 µM.
Regarding `COc1ccccc1NC(=O)CN1CCN(S(=O)(=O)N2CCC(C)CC2)CC1`, the IC50 in assay [3] is over 10 µM.
Consider `CCOc1ccc(Cl)cc1NC(=O)CN1CCN(S(=O)(=O)N2CCC(C)CC2)CC1`, for which it took 7.1 µM to reach half-maximal inhibition in assay [3] (IC50).
For the compound `COc1ccc(F)cc1NC(=O)CN1CCN(S(=O)(=O)N2CCC(C)CC2)CC1`, the concentration for half-maximal inhibition (IC50) amounted to 2.3 µM in assay [6] and 4.9 µM in assay [3].
As to `COc1ccc(Cl)cc1NC(=O)CN1CCN(S(=O)(=O)N2CCC(C)CC2)C[C@H]1C`, the IC50 is over 10 µM in assay [7]; 1.7 µM in [4]; 1.9 µM in assay [5]; 1.1 µM in assay [6]; 2.4 µM in assay [3]; over 10 µM in assay [1]. The Efficacy was determined as 50% in assay [8] and 32% in assay [9].
As for `COc1ccc(Cl)cc1NC(=O)CN1CCN(S(=O)(=O)N2CCC(C)CC2)[C@H](C)C1`, inhibition in assay [3] was half-maximal at 13 µM (IC50).
The same measure, in the same setting: to `Cc1ccc(Cl)cc1NC(=O)CN1CCN(S(=O)(=O)N2CCC(C)CC2)CC1` belongs over 10 µM; to `CC1CCN(S(=O)(=O)N2CCN(CC(=O)Nc3cc(Cl)ccc3OC(C)C)CC2)CC1`, 5.1 µM.
`COc1ccc(Cl)cc1NC(=O)N1CC2(C1)CN(S(=O)(=O)N1CCC(C)CC1)C2` displayed an IC50 in assay [3] of over 10 µM.
Regarding `COc1ccc(Cl)cc1NC(=O)N1CC2(CCN(S(=O)(=O)N3CCC(C)CC3)CC2)C1`, the EC50 in [2] is over 10 µM.
`COc1ccc(Cl)cc1NC(=O)CN1CCN(S(=O)(=O)N2CCN(C(=O)N3CCCCC3)CC2)CC1` gave an EC50 in assay [2] of over 10 µM.
In the case of `COc1ccc(C)cc1NC(=O)CN1CCN(S(=O)(=O)N2CCC(C)CC2)CC1`, the IC50 in assay [3] is over 10 µM.
In assay [2], `COc1ccc(Cl)cc1NC(=O)CN1CCN(S(=O)(=O)N2CCN(S(=O)(=O)N3CCC(F)(F)C3)CC2)CC1` displayed an EC50 of over 10 µM.
Turning to `CCCC1CCN(C(=O)N2CCN(S(=O)(=O)N3CCN(CC(=O)Nc4cc(Cl)ccc4OC)CC3)CC2)CC1`, the IC50 in assay [3] is over 10 µM.
As to `COc1ccc(C(F)(F)F)cc1NC(=O)CN1CCN(S(=O)(=O)N2CCC(C)CC2)CC1`, the IC50 was over 10 µM in assay [7] and 4.1 µM in assay [1].
